Results: PubChem BioAssay AID2060601 (Molecular Pharmacology Branch, DTP, NCI, 2025)

Test system: 874868-142-R-J2-PDC complex spheroids, growth % test/control
Test: Anticancer human tumor 874868-142-R-J2-PDC patient-derived head and neck squamous carcinoma cell line growth inhibition [CLK]
Settings: for IC50: curve of first compound; for viability, T/C: stronger effect = lower value
Procedure, shortened: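 Patient-derived tumor cells grown as complex spheroids with HUVEC endothelial cells and mesenchymal stem cells, treated with drug combinations. Concentrations descend in half-log steps from near clinical Cmax, or from 10 microM if Cmax unknown.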
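Also: spheroids exposed to the compounds for 7 days.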
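For viability, T/C in this document: 100% = DMSO vehicle control viability.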

Q: How did the IC50 (second compound 0.0316 µM) turn out when `CCc1c2c(nc3ccc(O)cc13)-c1cc3c(c(=O)n1C2)COC(=O)[C@]3(O)CC` + CNC(=O)c1ccc(Nc2nc(OC3CCCC3)c3c(-c4ccc5nc(C)oc5c4)c[nH]c3n2)c(OC)c1 was run?
A: 11.8 nM

Q: What about the IC50 (second compound 0.1 µM) of the same compound?
A: 3.98 nM

Q: What about the IC50 (second compound 0.316 µM) of the same compound?
A: < 3.16 nM

Q: And the IC50 (second compound 1 µM)?
A: < 3.16 nM

Q: What about the IC50 (second compound 3.16 µM) of the same compound?
A: < 3.16 nM

Q: And the IC50 (second compound 10 µM)?
A: < 3.16 nM

Q: What about the viability, T/C (second compound 0.0316 µM, first compound 0.00316 µM) of the same compound?
A: 63.6%

Q: What about the viability, T/C (second compound 0.0316 µM, first compound 0.01 µM) of the same compound?
A: 44%

Q: What about the viability, T/C (second compound 0.0316 µM, first compound 0.0316 µM) of the same compound?
A: 47.1%

Q: What about the viability, T/C (second compound 0.0316 µM, first compound 0.1 µM) of the same compound?
A: 28%

Q: What about the viability, T/C (second compound 0.0316 µM, first compound 0.316 µM) of the same compound?
A: 11.6%

Q: What about the viability, T/C (second compound 0.0316 µM, first compound 1 µM) of the same compound?
A: 2.44%

Q: What about the viability, T/C (second compound 0.1 µM, first compound 0.00316 µM) of the same compound?
A: 50.4%

Q: And the viability, T/C (second compound 0.1 µM, first compound 0.01 µM)?
A: 47.8%

Q: What about the viability, T/C (second compound 0.1 µM, first compound 0.0316 µM) of the same compound?
A: 35.7%

Q: And the viability, T/C (second compound 0.1 µM, first compound 0.1 µM)?
A: 28.2%

Q: What about the viability, T/C (second compound 0.1 µM, first compound 0.316 µM) of the same compound?
A: 16.6%

Q: What about the viability, T/C (second compound 0.1 µM, first compound 1 µM) of the same compound?
A: 2.97%

Q: And the viability, T/C (second compound 0.316 µM, first compound 0.00316 µM)?
A: 42.9%

Q: What about the viability, T/C (second compound 0.316 µM, first compound 0.01 µM) of the same compound?
A: 37.9%

Q: And the viability, T/C (second compound 0.316 µM, first compound 0.0316 µM)?
A: 34.4%

Q: What about the viability, T/C (second compound 0.316 µM, first compound 0.1 µM) of the same compound?
A: 19.6%

Q: What about the viability, T/C (second compound 0.316 µM, first compound 0.316 µM) of the same compound?
A: 11.3%

Q: And the viability, T/C (second compound 0.316 µM, first compound 1 µM)?
A: 4.87%

Q: And the viability, T/C (second compound 1 µM, first compound 0.00316 µM)?
A: 31%

Q: What about the viability, T/C (second compound 1 µM, first compound 0.01 µM) of the same compound?
A: 26.8%

Q: And the viability, T/C (second compound 1 µM, first compound 0.0316 µM)?
A: 15.1%

Q: And the viability, T/C (second compound 1 µM, first compound 0.1 µM)?
A: 11.6%

Q: What about the viability, T/C (second compound 1 µM, first compound 0.316 µM) of the same compound?
A: 7.96%

Q: What about the viability, T/C (second compound 1 µM, first compound 1 µM) of the same compound?
A: 1.98%

Q: What about the viability, T/C (second compound 3.16 µM, first compound 0.00316 µM) of the same compound?
A: 24.7%

Q: And the viability, T/C (second compound 3.16 µM, first compound 0.01 µM)?
A: 20.7%

Q: And the viability, T/C (second compound 3.16 µM, first compound 0.0316 µM)?
A: 15.3%

Q: And the viability, T/C (second compound 3.16 µM, first compound 0.1 µM)?
A: 12.4%

Q: And the viability, T/C (second compound 3.16 µM, first compound 0.316 µM)?
A: 12.8%

Q: What about the viability, T/C (second compound 3.16 µM, first compound 1 µM) of the same compound?
A: 4.03%

Q: And the viability, T/C (second compound 10 µM, first compound 0.00316 µM)?
A: 28.8%

Q: What about the viability, T/C (second compound 10 µM, first compound 0.01 µM) of the same compound?
A: 21.6%

Q: And the viability, T/C (second compound 10 µM, first compound 0.0316 µM)?
A: 14%

Q: What about the viability, T/C (second compound 10 µM, first compound 0.1 µM) of the same compound?
A: 11.2%

Q: And the viability, T/C (second compound 10 µM, first compound 0.316 µM)?
A: 9.57%

Q: And the viability, T/C (second compound 10 µM, first compound 1 µM)?
A: 9.34%
